Key:
Assay type in all cases: functional
SK-MEL-2 = experiment: Growth inhibition of human SK-MEL-2 cells
EKVX = experiment: Growth inhibition of human EKVX cells
HOP-62 = experiment: Growth inhibition of human HOP62 cells
Malme-3M = experiment: Growth inhibition of human MALME-3M cells
PO3 = experiment: Growth inhibition of mouse PO3 cells assessed as zone units at 50 ug/disk by disk diffusion agar colony formation assay
SK-MEL-28 = experiment: Growth inhibition of human SK-MEL-28 cells
HL-60(TB) = experiment: Growth inhibition of human HL-60(TB) cells
SF-268 = experiment: Growth inhibition of human SF268 cells
MOLT-4 = experiment: Growth inhibition of human MOLT4 cells
[1] = Growth inhibition of human Hs 578T cells
U-251 = experiment: Growth inhibition of human U251 cells
OVCAR-3 = experiment: Growth inhibition of human OVCAR-3 cells
L1210 = experiment: Growth inhibition of mouse L1210 cells assessed as zone units at 50 ug/disk by disk diffusion agar colony formation assay
MDA-MB-231 = experiment: Growth inhibition of human MDA-MB-231 cells
P388 = experiment: Growth inhibition of mouse P388 cells assessed as zone units at 50 ug/disk by disk diffusion agar colony formation assay
[2] = Growth inhibition of human […] cells
[3] = Growth inhibition of human MCF7/ADR resistant cells; settings: NCI/ADR-RES
HT-29 = experiment: Growth inhibition of human HT-29 cells
K562 = experiment: Growth inhibition of human K562 cells
CCRF-CEM = experiment: Growth inhibition of human CCRF-CEM cells
A498 = experiment: Growth inhibition of human A498 cells
MDA-MB-435 = experiment: Growth inhibition of human MDA-MB-435 cells
SNB-75 = experiment: Growth inhibition of human SNB75 cells
[4] = Growth inhibition of mouse M17/ADR cells assessed as zone units at 50 ug/disk by disk diffusion agar colony formation assay
NCI-H522 = experiment: Growth inhibition of human NCI-H522 cells
SR = experiment: Growth inhibition of human SR cells
OVCAR-8 = experiment: Growth inhibition of human OVCAR8 cells
IGROV-1 = experiment: Growth inhibition of human IGROV1 cells
KM12 = experiment: Growth inhibition of human KM12 cells
HOP-92 = experiment: Growth inhibition of human HOP92 cells
NCI-H23 = experiment: Growth inhibition of human NCI-H23 cells
CAKI-1 = experiment: Growth inhibition of human Caki1 cells
COLO 205 = experiment: Growth inhibition of human COLO205 cells
UO-31 = experiment: Growth inhibition of human UO31 cells
M14 = experiment: Growth inhibition of human M14 cells
SF-295 = experiment: Growth inhibition of human SF295 cells
NCI-H226 = experiment: Growth inhibition of human NCI-H226 cells
MCF7 = experiment: Growth inhibition of human MCF7 cells
MDA-N = experiment: Growth inhibition of human MDA-N cells
HCC 2998 = experiment: Growth inhibition of human HCC2998 cells
SK-MEL-5 = experiment: Growth inhibition of human SK-MEL-5 cells
OVCAR-5 = experiment: Growth inhibition of human OVCAR5 cells
SK-OV-3 = experiment: Growth inhibition of human SKOV3 cells
HCT-116 = experiment: Growth inhibition of human HCT116 cells
UACC-62 = experiment: Growth inhibition of human UACC62 cells
[5] = Growth inhibition of human H116 cells assessed as zone units at 50 ug/disk by disk diffusion agar colony formation assay
BT-549 = experiment: Growth inhibition of human BT549 cells
NCI-H460 = experiment: Growth inhibition of human NCI-H460 cells
UACC-257 = experiment: Growth inhibition of human UACC257 cells
DU-145 = experiment: Growth inhibition of human DU145 cells
NCI-H322M = experiment: Growth inhibition of human NCI-H322M cells
RXF 393 = experiment: Growth inhibition of human […] cells
T47D = experiment: Growth inhibition of human T47D cells
SN12C = experiment: Growth inhibition of human SN12C cells
OVCAR-4 = experiment: Growth inhibition of human OVCAR4 cells
ACHN = experiment: Growth inhibition of human ACHN cells
786-0 = experiment: Growth inhibition of human 786-0 cells
SW-620 = experiment: Growth inhibition of human SW620 cells
HCT-15 = experiment: Growth inhibition of human HCT15 cells
A549 = experiment: Growth inhibition of human A549 cells
SF-539 = experiment: Growth inhibition of human SF539 cells
PC-3 = experiment: Growth inhibition of human PC3 cells
CX-1 = experiment: Growth inhibition of human CX-1 cells assessed as zone units at 50 ug/disk by disk diffusion agar colony formation assay
MC-38 = experiment: Growth inhibition of mouse C38 cells assessed as zone units at 50 ug/disk by disk diffusion agar colony formation assay

Work on `CC1=C(CC/C(C)=C/CC[C@@]2(C)CC[C@@H]([C@H](C)C(=O)O)OO2)C(C)(C)CCC1` [EPIMUQUBILIN A] yielded a GI50 (SK-MEL-2) greater than 100000 nM, a GI50 (EKVX) greater than 100000 nM and a GI50 (HOP-62) greater than 100000 nM. The GI50 (Malme-3M) was greater than 100000 nM, the Activity (PO3) was 0 Zone units and the GI50 (SK-MEL-28) was greater than 100000 nM. For the same molecule, the GI50 (HL-60(TB)) was 47800 nM, the GI50 (SF-268) was greater than 100000 nM and the GI50 (MOLT-4) was 42600 nM. The GI50 [1] was greater than 100000 nM, the GI50 (U-251) was greater than 100000 nM and the GI50 (OVCAR-3) was greater than 100000 nM. For the same molecule, the Activity (L1210) was 50 Zone units, the GI50 (MDA-MB-231) was greater than 100000 nM and the Activity (P388) was 50 Zone units. For the same molecule, the GI50 [2] was greater than 100000 nM, the GI50 [3] was greater than 100000 nM and the GI50 (HT-29) was greater than 100000 nM. It also gave a GI50 (K562) greater than 100000 nM, a GI50 (CCRF-CEM) of 61700 nM and a GI50 (A498) greater than 100000 nM. It also gave a GI50 (MDA-MB-435) greater than 100000 nM, a GI50 (SNB-75) greater than 100000 nM and an Activity [4] of 70 Zone units. The GI50 (NCI-H522) was 13800 nM, the GI50 (SR) was greater than 100000 nM and the GI50 (OVCAR-8) was greater than 100000 nM. The GI50 (IGROV-1) was 43600 nM, the GI50 (KM12) was greater than 100000 nM and the GI50 (HOP-92) was greater than 100000 nM.
With `C=C1CCCC(C)(C)C1CC[C@]1(C)CC[C@@H]([C@@H](C)C(=O)O)OO1` (some centres not stated) [EPINUAPAPUIN B] the GI50 (NCI-H23) was greater than 10000 nM, the GI50 (SK-MEL-2) was greater than 10000 nM and the GI50 (EKVX) was greater than 10000 nM. It also gave a GI50 (HOP-62) of 9540 nM, a GI50 (Malme-3M) of 3960 nM and a GI50 (CAKI-1) greater than 10000 nM. For the same molecule, the GI50 (COLO 205) was greater than 10000 nM, the Activity (PO3) was 60 Zone units and the GI50 (UO-31) was greater than 10000 nM. For the same molecule, the GI50 (SK-MEL-28) was greater than 10000 nM, the GI50 (HL-60(TB)) was 2060 nM and the GI50 (MOLT-4) was 7430 nM. The GI50 (M14) was greater than 10000 nM, the GI50 (SF-295) was greater than 10000 nM and the GI50 (NCI-H226) was greater than 10000 nM. The GI50 [1] was greater than 10000 nM, the GI50 (U-251) was greater than 10000 nM and the GI50 (MCF7) was greater than 10000 nM. For the same molecule, the GI50 (OVCAR-3) was greater than 10000 nM, the GI50 (MDA-N) was greater than 10000 nM and the Activity (L1210) was 160 Zone units. For the same molecule, the GI50 (MDA-MB-231) was greater than 10000 nM, the Activity (P388) was 160 Zone units and the GI50 (HCC 2998) was greater than 10000 nM. It also gave a GI50 [2] greater than 10000 nM, a GI50 (SK-MEL-5) greater than 10000 nM and a GI50 [3] greater than 10000 nM. The GI50 (HT-29) was greater than 10000 nM, the GI50 (OVCAR-5) was greater than 10000 nM and the GI50 (SK-OV-3) was greater than 10000 nM. It also gave a GI50 (CCRF-CEM) of 2270 nM, a GI50 (HCT-116) greater than 10000 nM and a GI50 (A498) greater than 10000 nM. For the same molecule, the GI50 (UACC-62) was greater than 10000 nM, the GI50 (MDA-MB-435) was greater than 10000 nM and the Activity [5] was 70 Zone units. The GI50 (BT-549) was greater than 10000 nM, the GI50 (SNB-75) was greater than 10000 nM and the Activity [4] was 210 Zone units. The GI50 (NCI-H460) was greater than 10000 nM, the GI50 (UACC-257) was greater than 10000 nM and the GI50 (DU-145) was greater than 10000 nM. For the same molecule, the GI50 (NCI-H322M) was greater than 10000 nM, the GI50 (RXF 393) was greater than 10000 nM and the GI50 (T47D) was greater than 10000 nM. For the same molecule, the GI50 (SN12C) was greater than 10000 nM, the GI50 (OVCAR-4) was greater than 10000 nM and the GI50 (ACHN) was greater than 10000 nM. It also gave a GI50 (NCI-H522) of 2060 nM, a GI50 (SR) of 2720 nM and a GI50 (786-0) greater than 10000 nM. It also gave a GI50 (OVCAR-8) greater than 10000 nM, a GI50 (IGROV-1) of 1730 nM and a GI50 (SW-620) greater than 10000 nM. It also gave a GI50 (HCT-15) greater than 10000 nM, a GI50 (KM12) of 5730 nM and a GI50 (A549) greater than 10000 nM. It also gave a GI50 (SF-539) greater than 10000 nM and a GI50 (HOP-92) of 6630 nM.
`C=C1CCC[C@H]2[C@](C)(CC[C@]3(C)CC[C@H]([C@@H](C)C(=O)O)OO3)[C@@H](C)CC[C@]12C` [SIGMOSCEPTRELLIN A] showed a GI50 (NCI-H23) of 2020 nM, a GI50 (SK-MEL-2) of 2170 nM and a GI50 (EKVX) of 1170 nM. The GI50 (HOP-62) was 1050 nM, the GI50 (Malme-3M) was 1200 nM and the GI50 (CAKI-1) was 1760 nM. The GI50 (COLO 205) was 2180 nM, the GI50 (UO-31) was 1220 nM and the GI50 (SK-MEL-28) was 3310 nM. For the same molecule, the GI50 (HL-60(TB)) was 140 nM, the GI50 (MOLT-4) was 980 nM and the GI50 (M14) was 3290 nM. For the same molecule, the GI50 (PC-3) was 1690 nM, the GI50 (SF-295) was 1460 nM and the GI50 (NCI-H226) was 110 nM. It also gave a GI50 [1] of 1080 nM, a GI50 (U-251) of 1730 nM and a GI50 (MCF7) of 1780 nM. The GI50 (OVCAR-3) was 1850 nM, the GI50 (MDA-N) was 1830 nM and the Activity (L1210) was 230 Zone units. It also gave a GI50 (MDA-MB-231) of 3710 nM, an Activity (P388) of 230 Zone units and a GI50 (HCC 2998) of 1550 nM. The GI50 [2] was 1710 nM, the GI50 (SK-MEL-5) was 2680 nM and the GI50 (HT-29) was 1570 nM. The GI50 (OVCAR-5) was 1740 nM, the GI50 (SK-OV-3) was 1570 nM and the GI50 (CCRF-CEM) was 200 nM. For the same molecule, the GI50 (HCT-116) was 1800 nM, the Activity (CX-1) was 220 Zone units and the GI50 (A498) was 1930 nM. It also gave a GI50 (UACC-62) of 2320 nM, a GI50 (MDA-MB-435) of 1980 nM and an Activity (MC-38) of 180 Zone units. For the same molecule, the GI50 (BT-549) was 1810 nM, the GI50 (SNB-75) was 1080 nM and the Activity [4] was 290 Zone units. It also gave a GI50 (NCI-H460) of 1590 nM, a GI50 (UACC-257) of 3680 nM and a GI50 (NCI-H322M) of 1910 nM. The GI50 (RXF 393) was 1220 nM, the GI50 (T47D) was 2000 nM and the GI50 (SN12C) was 1780 nM. It also gave a GI50 (OVCAR-4) of 1890 nM, a GI50 (ACHN) of 1380 nM and a GI50 (NCI-H522) of 120 nM. For the same molecule, the GI50 (SR) was 1130 nM, the GI50 (786-0) was 610 nM and the GI50 (OVCAR-8) was 1570 nM. For the same molecule, the GI50 (IGROV-1) was 120 nM, the GI50 (SW-620) was 1570 nM and the GI50 (HCT-15) was 1890 nM. The GI50 (KM12) was 940 nM, the GI50 (A549) was 1450 nM and the GI50 (SF-539) was 1610 nM. It also gave a GI50 (HOP-92) of 290 nM.

Source: ChEMBL document CHEMBL1141727, “Isolation and cytotoxic evaluation of marine sponge-derived norterpene peroxides” (J Nat Prod, 1998)
